The test system of assay [1] is Seeds of Lettuce R. (Super-Jericho). As to the kind of experiment: Filter paper bioassay with lettuce seeds: germination and early plant development, Minimal Effective Concentration (MEC). Type of assay: in vivo. The following applies: lettuce seeds on filter paper, 0 to 1 mmol/l, visually assessed after 6 days. An outline of the steps:
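Non-sterilized Super-Jericho lettuce seeds, 10 per dish, on filter paper wetted with aqueous test solution at 0–1 mmol/l. Kept 48 h dark, then 4 days at 6/18 dark/light. MEC is the lowest concentration causing no germination or radicle/shoot malformation by visual scoring at day 6; at least two repeats.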

Assay [2] has as its system Romaine lettuce (Lactuca sativa L.) plants. In words: Post-emergence herbicidal activity on potted Romaine lettuce plants (soil or foliar application). It counts as in vivo. The following applies: lettuce at 2 to 3 leaves, two weeks after treatment. As for the experimental part:
The tests were performed on Romaine lettuce (Lactuca sativa L.) plants at the stage 2 to 3 leaves. The plants were grown in mini-pots packed with soil, dimensions 2×2×5 cm, one plant per mini-pot. Test compounds were dissolved in 0.1% aqueous solution water solution of Silwet adjuvant to final concentrations ranging from 0 (Control) to 0.0001%. The test compounds were applied on soil (1 ml per pot) or foliar with airbrush (0.1 ml per pot). Each concentration was tested on 20 plants. Two weeks after the treatment the herbicidal effects of the respective test material were visually evaluated (aboveground part and roots. Then the aboveground part of the plants was neatly cut and weighed (wet weight) to assess the growth inhibition caused by the test compound. The growth inhibition (GI) was calculated as following: […]
Where Mt and Mc are median wet weight of treated and control plants, respectively. In the context of the invention, the herbicidal effect was assessed by concentration of the compound causing more than 85% of Growth Inhibition (GI) or irreversible damage of the plants (Table 3). Herbicidal activity of selected DHAAs is summarized in Table 4 (soil application) and Table 5 (Foliar application).

For “2-(2-chloro-1,3-thiazol-4-yl)-2,2-difluoroethan-1-ol [compound 5724]”, in assay [1], the “Score (activity score of Minimal Effective Concentration, MEC)” value is on record as “Moderate (0.1 mM)”. Further, the “Score (test material causing more than 85% of Growth Inhibition or irreversible plant damage)” value in assay [2] (soil application) is “strong (0.01 to 0.05)”.
Regarding “2-(5-chlorothiophen-3-yl)-2,2-difluoroacetic acid [compound 5625]”, in assay [1], the “Score (activity score of Minimal Effective Concentration, MEC)” value is “Strong (0.01 mM)”. For the same molecule, the “Score (test material causing more than 85% of Growth Inhibition or irreversible plant damage)” value in assay [2] (foliar application) and in assay [2] (soil application) was “strong (0.01 to 0.05)” throughout.
Take `O=C(O)Cc1cc(Br)nc(Br)c1` [compound 689, 2-(2,6-dibromopyridin-4-yl)acetic acid]: the “Score (activity score of Minimal Effective Concentration, MEC)” value in assay [1] was “Moderate (0.1 mM)”. Besides, the “Score (test material causing more than 85% of Growth Inhibition or irreversible plant damage)” value in assay [2] (soil application) was “moderate (0.5)”.
The like results for `NC(=O)CCCc1cc(Cl)sc1Cl` [compound 5600, 4-(2,5-dichlorothiophen-3-yl)butanamide] were, in that order, “Weak (Higher than 0.1 mM)” and “moderate (0.5)”.
With `CC(=O)NCCc1cc(Cl)sc1Cl` [compound 5629, N-[2-(2,5-dichlorothiophen-3-yl)ethyl]acetamide], the “Score (test material causing more than 85% of Growth Inhibition or irreversible plant damage)” value in assay [2] (soil application) was “moderate (0.5)”.
The same measure, in the same setting: in the case of `CC(=O)NCCc1nc(Cl)sc1Cl` [compound 5650, N-[2-(2,5-dichloro-1,3-thiazol-4-yl)ethyl]acetamide] it was “moderate (0.5)”.
Take `COC(=O)C(Cl)c1cc(Cl)sc1Cl` (stereo not drawn) [compound 5656, methyl 2-chloro-2-(2,5-dichlorothiophen-3-yl)acetate]: the “Score (test material causing more than 85% of Growth Inhibition or irreversible plant damage)” value in assay [2] (soil application) is reported as “moderate (0.5)”.
Turning to `CCOC(=O)Cc1nc(Br)sc1C` [compound 5661, ethyl 2-(2-bromo-5-methyl-1,3-thiazol-4-yl)acetate], in assay [1], the “Score (activity score of Minimal Effective Concentration, MEC)” value was “Moderate (0.1 mM)”. For the same molecule, the “Score (test material causing more than 85% of Growth Inhibition or irreversible plant damage)” value in assay [2] (foliar application) and in assay [2] (soil application) was “moderate (0.5)” each time.
With `O=C(Cc1cc(Cl)sc1Cl)OCc1ccccc1` [compound 5669, benzyl 2-(2,5-dichlorothiophen-3-yl)acetate], the “Score (test material causing more than 85% of Growth Inhibition or irreversible plant damage)” value in assay [2] (foliar application) and in assay [2] (soil application) was “strong (0.01 to 0.05)” in each case.
In the case of `CONCCc1cc(Cl)sc1Cl` [compound 5670, 2-(2,5-dichlorothiophen-3-yl)-N-methoxyethan-1-amine], the “Score (activity score of Minimal Effective Concentration, MEC)” value in assay [1] is on record as “Moderate (0.1 mM)”. Moreover, the “Score (test material causing more than 85% of Growth Inhibition or irreversible plant damage)” value in assay [2] (soil application) was “moderate (0.5)”.
For the molecule `CCOC(=O)C(F)(F)c1csc(C(F)(F)F)n1` [compound 5781], the “Score (activity score of Minimal Effective Concentration, MEC)” value in assay [1] is “Strong (0.01 mM)”. In addition, the “Score (test material causing more than 85% of Growth Inhibition or irreversible plant damage)” value in assay [2] (foliar application) was “strong (0.01 to 0.05)”.
Consider `O=C(O)/C(F)=C(\F)c1ccc(Br)nc1` [compound 6638, (2E)-3-(6-bromopyridin-3-yl)-2,3-difluoroprop-2-enoic acid], for which the “Score (activity score of Minimal Effective Concentration, MEC)” value in assay [1] is on record as “Moderate (0.1 mM)”. For the same molecule, the “Score (test material causing more than 85% of Growth Inhibition or irreversible plant damage)” value in assay [2] (soil application) is reported as “moderate (0.5)”.
The like results for `O=C(O)C(F)(F)c1cccc(Cl)n1` [compound 6667, (6-chloropyridin-2-yl)(difluoro)acetic acid] were, in that order, “Strong (0.01 mM)” and “strong (0.01 to 0.05)”.
Turning to “(2-bromopyridin-4-yl)acetic acid [compound 678]”, the “Score (activity score of Minimal Effective Concentration, MEC)” value in assay [1] is “Strong (0.01 mM)”. The “Score (test material causing more than 85% of Growth Inhibition or irreversible plant damage)” value in assay [2] (soil application) is “weak (1.0)”.
The like results for “(2E)-3-(2-bromopyridin-4-yl)-N-(4-hydroxyphenyl)prop-2-enamide [compound 6610]” were, in that order, “Moderate (0.1 mM)” and “moderate (0.5)”.
“N-(6-bromopyridin-2-yl)guanidine hydrochloride [compound 6637]”: the “Score (activity score of Minimal Effective Concentration, MEC)” value in assay [1] was “Weak (Higher than 0.1 mM)”.
On the same count and under the same terms, to “N-[2-(2,5-dichlorothiophen-3-yl)ethyl]-N′-(2-hydroxypropyl)guanidine [compound 5727]” belongs “Moderate (0.1 mM)”; to “N-{2-[3-(2,5-dichlorothiophen-3-yl)propoxy]phenyl}guanidine [compound 5732]”, “Moderate (0.1 mM)”; to “N′-[2-(2,5-dichlorothiophen-3-yl)ethyl]-N-(3-hydroxypropyl)guanidine [compound 5725]”, “Moderate (0.1 mM)”.
Consider “[2,5-bis(trifluoromethyl)-1,3-thiazol-4-yl](difluoro)acetic acid [compound 5744]”, for which, in assay [1], the “Score (activity score of Minimal Effective Concentration, MEC)” value is “Moderate (0.1 mM)”.
On the same count and under the same terms, to “[2-(2,5-dichlorothiophen-3-yl)ethyl]hydrazine [compound 5705]” belongs “Moderate (0.1 mM)”.
As for “[3-(2-bromo-1,3-thiazol-4-yl)propyl]phosphonic acid [compound 5774]”, in assay [1], the “Score (activity score of Minimal Effective Concentration, MEC)” value was “Weak (Higher than 0.1 mM)”.
“[6-chloro-5-(trifluoromethyl)pyridin-2-yl](difluoro)acetic acid [compound 6671]”: the “Score (activity score of Minimal Effective Concentration, MEC)” value in assay [1] is on record as “Strong (0.01 mM)”. For the same molecule, the “Score (test material causing more than 85% of Growth Inhibition or irreversible plant damage)” value in assay [2] (soil application) is listed as “strong (0.01 to 0.05)”.
Consider “[(2,5-dichlorothiophen-3-yl)methyl]hydrazine [compound 5610]”, for which the “Score (activity score of Minimal Effective Concentration, MEC)” value in assay [1] is reported as “Weak (Higher than 0.1 mM)”.
On the same count and under the same terms, to “[(2-bromo-1,3-thiazol-4-yl)(difluoro)methyl]phosphonic acid [compound 5737]” belongs “Weak (Higher than 0.1 mM)”.
Consider “benzyl (6-bromopyridin-2-yl)(difluoro)acetate [compound 6646]”, for which the “Score (activity score of Minimal Effective Concentration, MEC)” value in assay [1] was “Strong (0.01 mM)”. Besides, the “Score (test material causing more than 85% of Growth Inhibition or irreversible plant damage)” value in assay [2] (soil application) is “strong (0.01 to 0.05)”.
With “dichloro-1,3-thiazole-4-carboxamide [compound 5616]”, the “Score (activity score of Minimal Effective Concentration, MEC)” value in assay [1] is given as “Moderate (0.1 mM)”.
For the molecule “difluoro(6-fluoropyridin-2-yl)acetic acid [compound 6664]”, in assay [1], the “Score (activity score of Minimal Effective Concentration, MEC)” value was “Strong (0.01 mM)”. For the same molecule, in assay [2] (soil application), the “Score (test material causing more than 85% of Growth Inhibition or irreversible plant damage)” value is listed as “strong (0.01 to 0.05)”.
For “difluoro[4-(trifluoromethyl)-1,3-thiazol-2-yl]acetic acid [compound 5760]”, the “Score (activity score of Minimal Effective Concentration, MEC)” value in assay [1] was “Moderate (0.1 mM)”.
As to “ethyl 2-(2-amino-5-chloro-1,3-thiazol-4-yl)-2,2-difluoroacetate [compound 5729]”, in assay [1], the “Score (activity score of Minimal Effective Concentration, MEC)” value is “Weak (Higher than 0.1 mM)”.
On to “ethyl 2-(2-bromo-1,3-thiazol-4-yl)acetate [compound 5663]”, for which, in assay [1], the “Score (activity score of Minimal Effective Concentration, MEC)” value was “Moderate (0.1 mM)”. The “Score (test material causing more than 85% of Growth Inhibition or irreversible plant damage)” value is given as “strong (0.01 to 0.05)” in assay [2] (foliar application) and “moderate (0.5)” in assay [2] (soil application).
As for “ethyl 2-(2-chlorooxazol-4-yl)-2,2-difluoroacetate [compound 5783]”, the “Score (activity score of Minimal Effective Concentration, MEC)” value in assay [1] is “Moderate (0.1 mM)”.
“ethyl difluoro[5-(trifluoromethyl)thiophen-3-yl]acetate [compound 5707]”: the “Score (activity score of Minimal Effective Concentration, MEC)” value in assay [1] is reported as “Weak (Higher than 0.1 mM)”.
The same measure, in the same setting: in the case of “methyl 2-(2-bromopyridin-4-yl)-2,2-difluoroacetate [compound 6629]” it was “Moderate (0.1 mM)”; in that of “naphthalene-2-carboxylic acid [compound 691]”, “Weak (Higher than 0.1 mM)”; in that of “propyl[2-(1H-1,2,4-triazol-3-yl)ethyl]amine [compound 5660]”, “Weak (Higher than 0.1 mM)”.
With “sodium 2-(2-chloro-1,3-thiazol-5-yl)-2,2-difluoroacetate [compound 5721]”, the “Score (activity score of Minimal Effective Concentration, MEC)” value in assay [1] is given as “Moderate (0.1 mM)”.
On to “{2-[(6-amino-9H-purin-9-yl)methoxy]ethoxy}methyl(2-chloro-1,3-thiazol-4-yl)acetate [compound 5752]”, for which the “Score (activity score of Minimal Effective Concentration, MEC)” value in assay [1] is on record as “Moderate (0.1 mM)”.

The record behind these values is patent US20240284907A1, “NOVEL DERIVATIVES OF NON-CODED AMINO ACIDS AND THEIR USE AS HERBICIDES” (FortePhest LTD., priority 2021, published 2024).
